# Results as given in US8394789B2, “(Dihydro)pyrrolo[2,1-α]isoquinolines” (MSD Oss B.V., priority 2008, dated 2013).
# Biological target: T1, human FSH receptor (Homo sapiens, UniProt P23945)
# T1 construct: expressed in transfected cells
# T1 sequence (P23945 18-695): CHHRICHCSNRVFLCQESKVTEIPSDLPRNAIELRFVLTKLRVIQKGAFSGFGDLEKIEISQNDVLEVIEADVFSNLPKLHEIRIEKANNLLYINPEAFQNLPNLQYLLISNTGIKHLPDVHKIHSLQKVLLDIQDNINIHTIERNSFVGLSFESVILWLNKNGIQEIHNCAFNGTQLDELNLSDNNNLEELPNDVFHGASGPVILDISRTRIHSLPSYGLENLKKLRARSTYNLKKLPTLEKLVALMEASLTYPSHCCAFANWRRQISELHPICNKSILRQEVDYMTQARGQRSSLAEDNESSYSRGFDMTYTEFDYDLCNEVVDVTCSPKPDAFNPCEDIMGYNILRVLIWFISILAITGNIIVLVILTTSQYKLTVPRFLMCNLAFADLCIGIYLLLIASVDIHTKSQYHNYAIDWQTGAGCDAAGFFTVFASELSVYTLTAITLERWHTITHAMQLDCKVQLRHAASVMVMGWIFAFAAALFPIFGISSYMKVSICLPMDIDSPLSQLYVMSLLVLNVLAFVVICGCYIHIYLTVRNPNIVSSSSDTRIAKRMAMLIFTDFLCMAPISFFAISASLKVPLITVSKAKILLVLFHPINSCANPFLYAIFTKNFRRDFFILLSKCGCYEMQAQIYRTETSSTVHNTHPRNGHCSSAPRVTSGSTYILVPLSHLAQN
# Test: hFSHRago (CHO luc): agonistic activity at the human FSH receptor expressed in CHO cells, CRE-luciferase reporter
# Format: cell-based
# Conditions: CHO cells stably transfected with human FSH receptor and CRE/luciferase reporter; 4 hours of incubation
row,SMILES,EC50
1,"COc1cc2ccn3c(C(=O)N(C)C(C)(C)C)cc(-c4cccs4)c3c2cc1OCCO [Example 36, 9-(2-Hydroxy-ethoxy)-8-methoxy-1-thiophen-2-yl-pyrrolo[2,1-α]isoquinoline-3-carboxylic acid tert-butyl-methyl-amide]",2.5 nM
2,"COc1cc2c(cc1OC(C)C)-c1c(Br)cc(C(=O)N(C)C(C)(C)C)n1CC2 [Example 37c, 1-Bromo-9-isopropoxy-8-methoxy-5,6-dihydro-pyrrolo[2,1-α]isoquinoline-3-carboxylic acid tert-butyl-methyl-amide]",234 nM
3,"COc1cc2c(cc1OC(C)C)-c1c(C#N)cc(C(=O)N(C)C(C)(C)C)n1CC2 [Example 37d, 1-Cyano-9-isopropoxy-8-methoxy-5,6-dihydro-pyrrolo[2,1-α]isoquinoline-3-carboxylic acid tert-butyl-methyl-amide]",67.1 nM
4,"COc1cc2c(cc1OC(C)C)-c1c(-c3nnn[nH]3)cc(C(=O)N(C)C(C)(C)C)n1CC2 [Example 38, 9-Isopropoxy-8-methoxy-1-(1H-tetrazol-5-yl)-5,6-dihydro-pyrrolo[2,1-α]isoquinoline-3-carboxylic acid tert-butyl-methyl-amide]",1640 nM
5,"COc1cc2c(cc1OC(C)C)-c1c(-c3cccs3)c(C=O)c(C(=O)N(C)C(C)(C)C)n1CC2 [Example 39, 2-Formyl-9-isopropoxy-8-methoxy-1-thiophen-2-yl-5,6-dihydro-pyrrolo[2,1-α]isoquinoline-3-carboxylic acid tert-butyl-methyl-amide]",2.7 nM
6,"COc1cc2c(cc1OC(C)C)-c1c(-c3cccs3)c(CO)c(C(=O)N(C)C(C)(C)C)n1CC2 [Example 40, 2-Hydroxymethyl-9-isopropoxy-8-methoxy-1-thiophen-2-yl-5,6-dihydro-pyrrolo[2,1-α]isoquinoline-3-carboxylic acid tert-butyl-methyl-amide]",8.8 nM
7,"COCc1c(-c2cccs2)c2n(c1C(=O)N(C)C(C)(C)C)CCc1cc(OC)c(OC(C)C)cc1-2 [Example 41, 9-Isopropoxy-8-methoxy-2-methoxymethyl-1-thiophen-2-yl-5,6-dihydro-pyrrolo[2,1-α]isoquinoline-3-carboxylic acid tert-butyl-methyl-amide]",2.8 nM
8,"COc1cc2c(cc1OC(C)C)-c1c(-c3cccs3)c(C=NO)c(C(=O)N(C)C(C)(C)C)n1CC2 [Example 42, 2-(Hydroxyimino-methyl)-9-isopropoxy-8-methoxy-1-thiophen-2-yl-5,6-dihydro-pyrrolo[2,1-α]isoquinoline-3-carboxylic acid tert-butyl-methyl-amide]",1.2 nM
9,"CON=Cc1c(-c2cccs2)c2n(c1C(=O)N(C)C(C)(C)C)CCc1cc(OC)c(OC(C)C)cc1-2 [Example 43, 9-Isopropoxy-8-methoxy-2-(methoxyimino-methyl)-1-thiophen-2-yl-5,6-dihydro-pyrrolo[2,1-α]isoquinoline-3-carboxylic acid tert-butyl-methyl-amide]",4.3 nM
10,COc1cc2c(cc1OC(C)C)-c1c(-c3cccs3)cc(C(=O)CC(C)(C)C)n1CC2 [Example 45],65.1 nM
11,"COc1cc2c(cc1OC(C)C)-c1c(-c3cccs3)cc(C(=O)C3CCCC3)n1CC2 [Example 46, Cyclopentyl-(9-isopropoxy-8-methoxy-1-thiophen-2-yl-5,6,6a,10a-tetrahydro-pyrrolo[2,1-α]isoquinolin-3-yl)-methanone]",78.2 nM
12,"COc1cc2c(cc1OC(C)C)-c1c(-c3cccs3)cc(C(=O)C(C)N(C)C)n1CC2 (stereo not drawn) [Example 47, 2-Dimethylamino-1-(9-isopropoxy-8-methoxy-1-thiophen-2-yl-5,6-dihydro-pyrrolo[2,1-α]isoquinolin-3-yl)-propan-1-one]",149 nM
13,"COc1cc2c(cc1OC(C)C)-c1c(-c3cccs3)cc(C(=O)C(C)N3CCOCC3)n1CC2 (stereo not drawn) [Example 48, 1-(9-Isopropoxy-8-methoxy-1-thiophen-2-yl-5,6-dihydro-pyrrolo[2,1-α]isoquinolin-3-yl)-2-morpholin-4-yl-propan-1-one]",89.4 nM
14,"COc1cc2c(cc1OC(C)C)-c1c(-c3cccs3)cc(C(=O)C(C)N3CCCN(C(C)=O)CC3)n1CC2 (stereo not drawn) [Example 49, 2-(4-Acetyl-[1,4]diazepan-1-yl)-1-(9-isopropoxy-8-methoxy-1-thiophen-2-yl-5,6-dihydro-pyrrolo[2,1-α]isoquinolin-3-yl)-propan-1-one]",200 nM
15,"COc1cc2c(cc1OC(C)C)-c1c(C3CCCC3)cc(C(=O)NC(C)(C)C)n1CC2 [Example 50, 1-Cyclopentyl-9-isopropoxy-8-methoxy-5,6-dihydro-pyrrolo[2,1-α]isoquinoline-3-tert-butylamide]",220 nM
16,"COc1cc2c(cc1NC(C)C)-c1c(-c3cccs3)cc(C(=O)N(C)C(C)(C)C)n1CC2 [Example 51, 9-Isopropylamino-8-methoxy-1-thiophen-2-yl-5,6-dihydro-pyrrolo[2,1-α]isoquinoline-3-carboxylic acid tert-butyl-methyl-amide]",4.2 nM
17,"COc1cc2c(cc1O)-c1c(-c3cccs3)cc(C(=O)N(C)C(C)(C)C)n1CC2 [Example 52, 9-Hydroxy-8-methoxy-1-thiophen-2-yl-5,6-dihydro-pyrrolo[2,1-α]isoquinoline-3-carboxylic acid tert-butyl-methyl-amide]",356 nM
18,"COc1cc2c(cc1N1CCN(C(C)=O)CC1)-c1c(-c3cccs3)cc(C(=O)N(C)C(C)(C)C)n1CC2 [Example 53, 9-(4-Acetyl-piperazin-1-yl)-8-methoxy-1-thiophen-2-yl-5,6-dihydro-pyrrolo[2,1-α]isoquinoline-3-carboxylic acid tert-butyl-methyl-amide]",678 nM
19,"COc1cc2c(cc1N1CCN(C)CC1)-c1c(-c3cccs3)cc(C(=O)N(C)C(C)(C)C)n1CC2 [Example 54, 8-Methoxy-9-(4-methyl-piperazin-1-yl)-1-thiophen-2-yl-5,6-dihydro-pyrrolo[2,1-α]isoquinoline-3-carboxylic acid tert-butyl-methyl-amide]",455 nM
20,"COc1cc2c(cc1C=C(C)C)-c1c(-c3nccs3)cc(C(=O)N(C)C(C)(C)C)n1CC2 [Example 59, 8-Methoxy-9-(2-methyl-propenyl)-1-thiazol-2-yl-5,6-dihydro-pyrrolo[2,1-α]isoquinoline-3-carboxylic acid tert-butyl-methyl-amide]",2.6 nM

# The next lines start with the values.
row,EC50,SMILES
1,1.1 nM,"COc1cc2c(cc1-c1cn[nH]c1)-c1c(-c3cccs3)cc(C(=O)N(C)C(C)(C)C)n1CC2 [Example 55, 8-Methoxy-9-(1H-pyrazol-4-yl)-1-thiophen-2-yl-5,6-dihydro-pyrrolo[2,1-α]isoquinoline-3-carboxylic acid tert-butyl-methyl-amide]"
2,15.7 nM,"COc1cc2c(cc1N1CCOCC1)-c1c(-c3cccs3)cc(C(=O)N(C)C(C)(C)C)n1CC2 [Example 56, 8-Methoxy-9-morpholin-4-yl-1-thiophen-2-yl-5,6-dihydro-pyrrolo[2,1-α]isoquinoline-3-carboxylic acid tert-butyl-methyl-amide]"
3,276 nM,"COc1cc2c(cc1N1CCOCC1)-c1c(-c3cccnc3)cc(C(=O)N(C)C(C)(C)C)n1CC2 [Example 57, 8-Methoxy-9-morpholin-4-yl-1-pyridin-3-yl-5,6-dihydro-pyrrolo[2,1-α]isoquinoline-3-carboxylic acid tert-butyl-methyl-amide; trifluoro acetic acid]"
4,0.7 nM,"COc1cc2c(cc1C=C(C)C)-c1c(-c3cccs3)cc(C(=O)N(C)C(C)(C)C)n1CC2 [Example 58b, 8-Methoxy-9-(2-methyl-propenyl)-1-thiophen-2-yl-5,6-dihydro-pyrrolo[2,1-α]isoquinoline-3-carboxylic acid tert-butyl-methyl-amide]"
5,4.3 nM,"COc1cc2c(cc1CC(C)C)-c1c(-c3cccs3)cc(C(=O)N(C)C(C)(C)C)n1CC2 [Example 58c, 9-Isobutyl-8-methoxy-1-thiophen-2-yl-5,6-dihydro-pyrrolo[2,1-α]isoquinoline-3-carboxylic acid tert-butyl-methyl-amide]"
6,19 nM,"COc1cc2c(cc1CC(C)C)-c1c(-c3nccs3)cc(C(=O)N(C)C(C)(C)C)n1CC2 [Example 60, 9-Isobutyl-8-methoxy-1-thiazol-2-yl-5,6-dihydro-pyrrolo[2,1-α]isoquinoline-3-carboxylic acid tert-butyl-methyl-amide]"
7,5.2 nM,"CC(C)Cc1cc2c(cc1O)CCn1c(C(=O)N(C)C(C)(C)C)cc(-c3cccs3)c1-2 [Example 61, 8-Hydroxy-9-isobutyl-1-thiophen-2-yl-5,6-dihydro-pyrrolo[2,1-α]isoquinoline-3-carboxylic acid tert-butyl-methyl-amide]"
8,3.7 nM,"COc1cc2c(cc1NC(=O)C(C)C)-c1c(-c3cccs3)cc(C(=O)N3CCCC3(C)C)n1CC2 [Example 62, N-[3-(2,2-Dimethyl-pyrrolidine-1-carbonyl)-8-methoxy-1-thiophen-2-yl-5,6-dihydro-pyrrolo[2,1-α]isoquinolin-9-yl]-isobutyramide]"
9,252 nM,"CCOC(=O)COc1cc2c(cc1OC)CCn1c(C(=O)N(C)C(C)(C)C)cc(-c3cccs3)c1-2 [Example 63, [3-(tert-Butyl-methyl-carbamoyl)-8-methoxy-1-thiophen-2-yl-5,6-dihydro-pyrrolo[2,1-α]isoquinolin-9-yloxy]-acetic acid ethyl ester]"
